From US9611267B2, “Substituted tricyclic compounds as FGFR inhibitors” (Incyte Corporation, priority 2012, dated 2017)

How the values were obtained:
Assay type in all cases: biochemical
FGFR3 = FGFR3 (Homo sapiens (Human), UniProt P22607); assay: FGFR enzymatic assay (FRET peptide phosphorylation), FGFR3; settings: FGFR3 enzyme (Millipore), ATP 140 μM
Procedure, shortened: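 After 5-10 min pre-incubation of FGFR3 with serially diluted compound in pH 7.5 HEPES/MgCl2/EGTA/DTT buffer, the reaction proceeded 1 hr at 25° C. Phosphorylated peptide was detected by FRET, and IC50 was fitted with a variable-slope sigmoid.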

FGFR1 = FGFR1 (Homo sapiens (Human), UniProt P11362); assay: FGFR enzymatic assay (FRET peptide phosphorylation), FGFR1; settings: FGFR1 enzyme 0.02 nM, ATP 210 μM
Procedure, shortened: (§1)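 IC50 values were obtained from variable-slope sigmoidal dose-response fitting of a FRET read-out of peptide phosphorylation. The buffer, described for FGFR3, was 50 mM HEPES pH 7.5 with MgCl2, EGTA, Tween-20 and DTT.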

FGFR2 = FGFR2 (Homo sapiens (Human), UniProt P21802); assay: FGFR enzymatic assay (FRET peptide phosphorylation), FGFR2; settings: FGFR2 enzyme 0.01 nM, ATP 100 μM
Procedure, shortened: as §1

FGFR2, sequence (P21802 22-821): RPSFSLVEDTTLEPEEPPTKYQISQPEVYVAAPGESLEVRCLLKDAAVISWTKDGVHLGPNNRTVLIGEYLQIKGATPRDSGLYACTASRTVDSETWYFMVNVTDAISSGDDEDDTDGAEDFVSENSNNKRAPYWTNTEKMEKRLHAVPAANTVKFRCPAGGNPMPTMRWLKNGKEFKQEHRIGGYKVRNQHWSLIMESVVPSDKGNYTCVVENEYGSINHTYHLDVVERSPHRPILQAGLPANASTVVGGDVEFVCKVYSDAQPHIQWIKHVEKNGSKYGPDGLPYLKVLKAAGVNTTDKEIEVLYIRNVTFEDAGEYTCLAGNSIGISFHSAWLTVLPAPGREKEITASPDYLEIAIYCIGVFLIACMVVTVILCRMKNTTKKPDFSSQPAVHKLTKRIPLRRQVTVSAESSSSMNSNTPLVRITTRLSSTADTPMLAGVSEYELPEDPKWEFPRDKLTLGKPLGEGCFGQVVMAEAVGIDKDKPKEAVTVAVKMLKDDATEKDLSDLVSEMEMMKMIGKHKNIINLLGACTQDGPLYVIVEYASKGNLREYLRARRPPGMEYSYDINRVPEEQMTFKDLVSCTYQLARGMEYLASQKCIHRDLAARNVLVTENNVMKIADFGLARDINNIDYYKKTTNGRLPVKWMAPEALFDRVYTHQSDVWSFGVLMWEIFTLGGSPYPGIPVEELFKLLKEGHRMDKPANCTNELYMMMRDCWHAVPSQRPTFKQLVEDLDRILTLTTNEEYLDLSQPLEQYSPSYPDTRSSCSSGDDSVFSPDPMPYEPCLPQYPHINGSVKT
FGFR1, sequence (P11362 22-822): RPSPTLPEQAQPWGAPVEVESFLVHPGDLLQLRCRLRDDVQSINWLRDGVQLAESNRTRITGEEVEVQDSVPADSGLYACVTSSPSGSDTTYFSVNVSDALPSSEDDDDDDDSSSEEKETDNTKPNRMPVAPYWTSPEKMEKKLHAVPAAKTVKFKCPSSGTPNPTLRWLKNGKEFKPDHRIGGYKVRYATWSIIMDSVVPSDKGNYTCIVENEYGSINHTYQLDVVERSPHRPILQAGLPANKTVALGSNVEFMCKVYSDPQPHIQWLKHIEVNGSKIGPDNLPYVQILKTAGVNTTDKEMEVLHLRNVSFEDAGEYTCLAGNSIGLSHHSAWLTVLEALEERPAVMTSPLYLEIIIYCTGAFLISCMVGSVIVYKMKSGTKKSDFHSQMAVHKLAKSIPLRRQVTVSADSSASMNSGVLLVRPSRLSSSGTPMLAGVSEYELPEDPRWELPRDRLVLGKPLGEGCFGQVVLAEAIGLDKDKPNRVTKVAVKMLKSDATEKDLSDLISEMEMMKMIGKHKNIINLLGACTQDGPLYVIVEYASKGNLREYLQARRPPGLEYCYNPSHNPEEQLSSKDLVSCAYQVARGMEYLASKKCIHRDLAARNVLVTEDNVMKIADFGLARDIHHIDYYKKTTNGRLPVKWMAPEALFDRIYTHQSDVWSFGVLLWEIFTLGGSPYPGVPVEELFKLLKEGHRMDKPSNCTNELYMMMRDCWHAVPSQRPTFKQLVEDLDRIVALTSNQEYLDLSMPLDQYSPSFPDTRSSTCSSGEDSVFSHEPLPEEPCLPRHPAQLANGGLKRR
FGFR3, sequence (P22607 23-806): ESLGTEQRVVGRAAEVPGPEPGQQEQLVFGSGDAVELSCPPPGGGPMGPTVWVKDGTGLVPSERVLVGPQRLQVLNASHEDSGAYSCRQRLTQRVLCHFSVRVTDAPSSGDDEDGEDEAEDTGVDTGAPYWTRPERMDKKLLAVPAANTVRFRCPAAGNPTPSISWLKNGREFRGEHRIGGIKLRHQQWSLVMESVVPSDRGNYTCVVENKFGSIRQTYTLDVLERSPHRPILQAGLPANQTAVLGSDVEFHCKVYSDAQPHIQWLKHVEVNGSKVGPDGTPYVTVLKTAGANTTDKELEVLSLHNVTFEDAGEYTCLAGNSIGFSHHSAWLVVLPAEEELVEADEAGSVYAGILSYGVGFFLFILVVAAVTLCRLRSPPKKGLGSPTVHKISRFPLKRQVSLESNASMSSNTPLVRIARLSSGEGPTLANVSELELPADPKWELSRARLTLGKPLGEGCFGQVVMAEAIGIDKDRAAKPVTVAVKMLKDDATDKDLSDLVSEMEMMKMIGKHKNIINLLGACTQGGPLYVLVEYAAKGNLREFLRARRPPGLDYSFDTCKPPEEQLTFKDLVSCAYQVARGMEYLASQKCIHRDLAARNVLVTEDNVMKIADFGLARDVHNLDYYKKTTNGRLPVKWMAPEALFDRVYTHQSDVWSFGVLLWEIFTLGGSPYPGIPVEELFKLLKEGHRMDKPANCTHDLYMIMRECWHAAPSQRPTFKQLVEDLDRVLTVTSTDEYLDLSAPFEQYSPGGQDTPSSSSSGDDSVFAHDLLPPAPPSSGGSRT

Row | Compound | IC50 (FGFR3) [nM] | IC50 (FGFR1) [nM] | IC50 (FGFR2) [nM]
1 | COc1cc(OC)c(F)c(N2Cc3cnc4[nH]c(CN5CCOCC5)cc4c3N(C)C2=O)c1F [Example 110, 3-(2,6-difluoro-3,5-dimethoxyphenyl)-1-methyl-8-(morpholin-4-ylmethyl)-1,3,4,7-tetrahydro-2H-pyrrolo[3′,2′:5,6]pyrido[4,3-d]pyrimidin-2-one] | < 100 | < 100 | < 100
2 | CCN1CCN(CCc2cc3c4c(cnc3[nH]2)CN(c2c(F)c(OC)cc(OC)c2F)C(=O)N4c2ccccc2F)CC1 [Example 198, 3-(2,6-difluoro-3,5-dimethoxyphenyl)-1-(2-fluorophenyl)-8-[2-(4-ethylpiperazin-1-yl)ethyl]-1,3,4,7-tetrahydro-2H-pyrrolo[3′,2′:5,6]pyrido[4,3-d]pyrimidin-2-one] | < 100 | < 100 | < 100
3 | COc1cc(OC)c(F)c(N2Cc3cnc4c(c3N(C)C2=O)CC(=O)N4)c1F [Example 37, 3-(2,6-Difluoro-3,5-dimethoxyphenyl)-1-methyl-3,4,7,9-tetrahydro-1H-pyrrolo[3′,2′:5,6]pyrido[4,3-d]pyrimidine-2,8-dione] | < 100 | < 100 | < 100
4 | COc1cc(OC)c(F)c(N2Cc3cnc4[nH]ncc4c3N(c3ccccc3OC(F)(F)F)C2=O)c1F [Example 92, 3-(2,6-difluoro-3,5-dimethoxyphenyl)-1-[2-(trifluoromethoxy)phenyl]-1,3,4,7-tetrahydro-2H-pyrazolo[4′,3′:5,6]pyrido[4,3-d]pyrimidin-2-one] | < 100 | < 100 | < 100
5 | COc1cc(OC)c(F)c(N2Cc3cnc4c(c3N(c3ccc(Cl)cc3)C2=O)CC(=O)N4)c1F [Example 80, 1-(4-chlorophenyl)-3-(2,6-difluoro-3,5-dimethoxyphenyl)-3,4,7,9-tetrahydro-1H-pyrrolo[3′,2′:5,6]pyrido[4,3-d]pyrimidine-2,8-dione] | < 100 | < 100 | < 100
6 | COc1cc(OC)c(F)c(N2Cc3cnc4c(c3N(c3ncccc3Cl)C2=O)CC(=O)N4)c1F [Example 147, 1-(3-chloropyridin-2-yl)-3-(2,6-difluoro-3,5-dimethoxyphenyl)-3,4,7,9-tetrahydro-1H-pyrrolo[3′,2′:5,6]pyrido[4,3-d]pyrimidine-2,8-dione] | < 100 | < 100 | < 100
7 | COc1cc(OC)c(F)c(N2Cc3cnc4[nH]c(CN5CCN(C)CC5)cc4c3N(c3ccncc3)C2=O)c1F [Example 195, 3-(2,6-difluoro-3,5-dimethoxyphenyl)-8-[(4-methylpiperazin-1-yl)methyl]-1-pyridin-4-yl-1,3,4,7-tetrahydro-2H-pyrrolo[3′,2′:5,6]pyrido[4,3-d]pyrimidin-2-one] | < 100 | < 100 | < 100
8 | CCN1CCN(CCc2cc3c4c(cnc3[nH]2)CN(c2c(F)c(OC)cc(OC)c2F)C(=O)N4C)CC1 [Example 71, 3-(2,6-difluoro-3,5-dimethoxyphenyl)-8-[2-(4-ethylpiperazin-1-yl)ethyl]-1-methyl-1,3,4,7-tetrahydro-2H-pyrrolo[3′,2′:5,6]pyrido[4,3-d]pyrimidin-2-one] | < 100 | < 100 | < 100
9 | CCN1CCN(c2ccc(-c3n[nH]c4ncc5c(c34)N(C)C(=O)N(c3c(F)c(OC)cc(OC)c3F)C5)cc2)CC1 [Example 69, 3-(2,6-difluoro-3,5-dimethoxyphenyl)-9-[4-(4-ethylpiperazin-1-yl)phenyl]-1-methyl-1,3,4,7-tetrahydro-2H-pyrazolo[4′,3′:5,6]pyrido[4,3-d]pyrimidin-2-one] | < 100 | < 100 | < 100
10 | COc1cc(OC)c(F)c(N2Cc3cnc4[nH]c(CCN5CCN(C)CC5)cc4c3N(c3ccc(F)cc3)C2=O)c1F [Example 226, 3-(2,6-difluoro-3,5-dimethoxyphenyl)-1-(4-fluorophenyl)-8-[2-(4-methylpiperazin-1-yl)ethyl]-1,3,4,7-tetrahydro-2H-pyrrolo[3′,2′:5,6]pyrido[4,3-d]pyrimidin-2-one] | < 100 | < 100 | < 100
11 | COc1cc(OC)c(F)c(N2Cc3cnc4[nH]c(CN5CCCC(F)(F)C5)cc4c3N(C)C2=O)c1F [Example 113, 3-(2,6-difluoro-3,5-dimethoxyphenyl)-8-[(3,3-difluoropiperidin-1-yl)methyl]-1-methyl-1,3,4,7-tetrahydro-2H-pyrrolo[3′,2′:5,6]pyrido[4,3-d]pyrimidin-2-one] | < 100 | < 100 | < 100
12 | COc1cc(OC)c(F)c(N2Cc3cnc4[nH]c(CCN5CCOCC5)cc4c3N(C3CCC3)C2=O)c1F [Example 183, 1-cyclobutyl-3-(2,6-difluoro-3,5-dimethoxyphenyl)-8-(2-morpholin-4-ylethyl)-1,3,4,7-tetrahydro-2H-pyrrolo[3′,2′:5,6]pyrido[4,3-d]pyrimidin-2-one] | < 100 | < 100 | < 100

Now from value to compound:

Row | IC50 (FGFR3) [nM] | IC50 (FGFR1) [nM] | IC50 (FGFR2) [nM] | Compound
13 | < 100 | < 100 | < 100 | COc1cc(OC)c(F)c(N2Cc3cnc4[nH]ccc4c3N(c3cccc(Cl)c3F)C2=O)c1F [Example 84, 1-(3-chloro-2-fluorophenyl)-3-(2,6-difluoro-3,5-dimethoxyphenyl)-1,3,4,7-tetrahydro-2H-pyrrolo[3′,2′:5,6]pyrido[4,3-d]pyrimidin-2-one]
14 | < 100 | < 100 | < 100 | COc1cc(OC)c(F)c(N2Cc3cnc4[nH]c(C5CCOCC5)cc4c3N(C)C2=O)c1F [Example 39, 3-(2,6-Difluoro-3,5-dimethoxyphenyl)-1-methyl-8-(tetrahydro-2H-pyran-4-yl)-1,3,4,7-tetrahydro-2H-pyrrolo[3′,2′:5,6]pyrido[4,3-d]pyrimidin-2-one]
15 | < 100 | < 100 | < 100 | CCN1CCC(Cc2cc3c4c(cnc3[nH]2)CN(c2c(F)c(OC)cc(OC)c2F)C(=O)N4C)CC1 [Example 73, 3-(2,6-difluoro-3,5-dimethoxyphenyl)-8-[(1-ethylpiperidin-4-yl)methyl]-1-methyl-1,3,4,7-tetrahydro-2H-pyrrolo[3′,2′:5,6]pyrido[4,3-d]pyrimidin-2-one]
16 | < 100 | < 100 | < 100 | COc1cc(OC)c(F)c(N2Cc3cnc4[nH]c(CN5CCOCC5)cc4c3N(c3ccncc3)C2=O)c1F [Example 194, 3-(2,6-difluoro-3,5-dimethoxyphenyl)-8-(morpholin-4-ylmethyl)-1-pyridin-4-yl-1,3,4,7-tetrahydro-2H-pyrrolo[3′,2′:5,6]pyrido[4,3-d]pyrimidin-2-one]
17 | < 100 | < 100 | < 100 | COc1cc(OC)c(Cl)c(N2Cc3cnc4[nH]c(C(=O)N(C)C)cc4c3N(C)C2=O)c1 [Example 24, 3-(2-Chloro-3,5-dimethoxyphenyl)-N,N,1-trimethyl-2-oxo-2,3,4,7-tetrahydro-1H-pyrrolo[3′,2′:5,6]pyrido[4,3-d]pyrimidine-8-carboxamide]
18 | < 100 | < 100 | < 100 | COc1cc(OC)c(F)c(N2Cc3cnc4[nH]ccc4c3C3(CCOCC3)C2=O)c1F [Example 150, 7′-(2,6-difluoro-3,5-dimethoxyphenyl)-2,3,5,6,6′,7′-hexahydrospiro[pyran-4,9′-pyrrolo[2,3-c][2,7]naphthyridin]-8′(3′H)-one]
19 | < 100 | < 100 | < 100 | COc1cc(OC)cc(N2Cc3cnc4[nH]ccc4c3N(C3CC3)C2=O)c1 [Example 4, 1-Cyclopropyl-3-(3,5-dimethoxyphenyl)-1,3,4,7-tetrahydro-2H-pyrrolo[3′,2′:5,6]pyrido[4,3-d]pyrimidin-2-one]
20 | < 100 | < 100 | < 100 | COc1cc(OC)c(F)c(N2Cc3cnc4[nH]cc(C)c4c3N(C)C2=O)c1F [Example 104, 3-(2,6-difluoro-3,5-dimethoxyphenyl)-1,9-dimethyl-1,3,4,7-tetrahydro-2H-pyrrolo[3′,2′:5,6]pyrido[4,3-d]pyrimidin-2-one]
21 | < 100 | < 100 | < 100 | COc1cc(OC)cc(N2Cc3cnc4[nH]ccc4c3N(Cc3ccccc3)C2=O)c1 [Example 6, 1-Benzyl-3-(3,5-dimethoxyphenyl)-1,3,4,7-tetrahydro-2H-pyrrolo[3′,2′:5,6]pyrido[4,3-d]pyrimidin-2-one]
22 | < 100 | < 100 | < 100 | COc1cc(OC)cc(N2Cc3cnc4[nH]c(C(=O)N5CCC(O)C5)cc4c3N(C)C2=O)c1 (stereo not drawn) [Example 21, 3-(3,5-Dimethoxyphenyl)-8-[(3-hydroxypyrrolidin-1-yl)carbonyl]-1-methyl-1,3,4,7-tetrahydro-2H-pyrrolo[3′,2′:5,6]pyrido[4,3-d]pyrimidin-2-one]
23 | < 100 | < 100 | < 100 | COc1cc(OC)cc(N2Cc3cnc4[nH]ccc4c3N(CC3CC3)C2=O)c1 [Example 5, 1-(Cyclopropylmethyl)-3-(3,5-dimethoxyphenyl)-1,3,4,7-tetrahydro-2H-pyrrolo[3′,2′:5,6]pyrido[4,3-d]pyrimidin-2-one]
24 | < 100 | < 100 | < 100 | COc1cc(OC)c(F)c(N2Cc3cnc4[nH]c(CNC5CCN(C)CC5)cc4c3N(C)C2=O)c1F [Example 134, 3-(2,6-difluoro-3,5-dimethoxyphenyl)-1-methyl-8-{[(1-methylpiperidin-4-yl)amino]methyl}-1,3,4,7-tetrahydro-2Hpyrrolo[3′,2′:5,6]pyrido[4,3-d]pyrimidin-2-one]
